Results on six molecules are retold here after PMC11506171, “Quercetin as a Modulator of PTPN22 Phosphomonoesterase Activity: A Biochemical and Computational Evaluation” (Current Issues in Molecular Biology, 2024).

The inhibition is the percentage by which the read-out fell short of the control. By IC50 is commonly meant the concentration at which inhibition is half-maximal.

Format in all cases: biochemical
For test [1], the target named is T1, protein tyrosine phosphatase nonreceptor type 22 (PTPN22) (Homo sapiens, UniProt Q9Y2R2).
T1 construct: catalytic domain, amino acids 1 to 303
T1 sequence (Q9Y2R2 1-303): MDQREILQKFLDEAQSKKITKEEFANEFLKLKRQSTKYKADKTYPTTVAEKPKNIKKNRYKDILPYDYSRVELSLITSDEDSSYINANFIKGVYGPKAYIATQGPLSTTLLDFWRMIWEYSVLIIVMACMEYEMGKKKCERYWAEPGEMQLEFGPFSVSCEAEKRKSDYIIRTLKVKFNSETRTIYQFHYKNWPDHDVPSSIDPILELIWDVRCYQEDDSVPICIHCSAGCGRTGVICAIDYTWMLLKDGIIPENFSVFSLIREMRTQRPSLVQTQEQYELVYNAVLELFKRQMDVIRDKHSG
Briefly: pNPP phosphatase assay, single concentration screen at […]. The settings on record: read-out: % inhibition at 50 μM.

Test [2] addresses T1, protein tyrosine phosphatase nonreceptor type 22 (PTPN22). As to the kind of experiment: pNPP phosphatase assay with recombinant enzyme; Lineweaver-Burk and Dixon plots (Ki […]).
Test [3] has the same target. Briefly: pNPP phosphatase assay with recombinant enzyme, reference inhibitor.

For `O=C1C=C(O)C(=O)c2ccccc21` [2HNQ], the inhibition at 50 µM in test [1] is 62%.

On to `O=C1C=CC(=O)c2c(O)cccc21` [5HNQ], for which the inhibition at 50 µM in test [1] came to 61%.

Regarding `CO[C@H]1C[C@H](O[C@H]2[C@H](C)O[C@@H](O[C@@H]3/C(C)=C/C[C@@H]4C[C@@H](C[C@]5(C=C[C@H](C)[C@@H](C6CCCCC6)O5)O4)OC(=O)[C@@H]4C=C(C)[C@@H](O)[C@H]5OC/C(=C\C=C\[C@@H]3C)[C@]54O)C[C@@H]2OC)O[C@@H](C)[C@@H]1O` [doramectin], the inhibition at 50 µM in test [1] came to 50%.

For the molecule `O=c1c(O)c(-c2ccc(O)c(O)c2)oc2cc(O)cc(O)c12` [quercetin], in test [2], the IC50 was 29.6 µM.

As for `CO[C@H]1C[C@H](O[C@@H]2/C(C)=C/C[C@@H]3C[C@@H](C[C@]4(CC[C@H](C)[C@@H](C5CCCCC5)O4)O3)OC(=O)[C@@H]3C=C(C)/C(=N/O)[C@H]4OC/C(=C\C=C\[C@@H]2C)[C@]43O)O[C@@H](C)[C@@H]1O` [selamectin], the inhibition at 50 µM in test [1] was 54%.

For the molecule `C[C@H]1[C@H](C)CC[C@]2(C(=O)O)CC[C@]3(C)C(=CC[C@@H]4[C@@]5(C)CC[C@H](O)C(C)(C)[C@@H]5CC[C@]43C)[C@H]12` [ursolic acid], the IC50 in test [3] worked out at 37.2 µM.
